# Assay results from patent US20240400555A1 (Initial Therapeutics, Inc., priority 2023, published 2024).
# Tested on: HCT-116 Firefly-luciferase reporter cells
# Test: Cellular c-MYC Reporter Assay
# Assay type: cell-based
# Conditions: Homo sapiens, HCT-116, 24 h, read-out: pIC50 (converted)
# Summary of the method: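 Compound exposure lasted 24 h at 37 °C, 5% CO2, in complete McCoy's 5A medium containing 0.2% DMSO, beginning 4–6 h post-seeding (5e4 cells/mL). Firefly luciferase signal measured by luminescence after 10 min ONE-Glo development at room temperature.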
row,SMILES,IC50
1,"Cc1cccc2ccnc(N(C(=O)c3ccc(-n4ncnn4)cc3)[C@@H]3CCCNC3)c12 [Example 234, (R)—N-(8-methylisoquinolin-1-yl)-N-(piperidin-3-yl)-4-(2H-tetrazol-2-yl)benzamide]",398 nM
2,"Cc1cccc2ccnc(N(C(=O)c3ccc(-n4nnc5cccnc54)cc3)[C@@H]3CCCNCC3)c12 [Example 229, (R)-4-(3H-[1,2,3]triazolo[4,5-b]pyridin-3-yl)-N-(azepan-4-yl)-N-(8-methylisoquinolin-1-yl)benzamide]",15100 nM

# Same assay, conditions: Homo sapiens; untitled table following Table 8a; HCT-116 Firefly-luciferase reporter cells, 24 h; read-out: pIC50 (converted)
row,SMILES,IC50
1,"O=C(c1ccc(-n2nnc3cccnc32)cc1F)N(c1nccc2ccc(-c3ccn[nH]3)cc12)[C@@H]1CCCNC1 [Example 152, (R)—N-(7-(1H-pyrazol-5-yl)isoquinolin-1-yl)-4-(3H-[1,2,3]triazolo[4,5-b]pyridin-3-yl)-2-fluoro-N-(piperidin-3-yl)benzamide]",468 nM
2,"Cc1cccc2ccnc(N(C(=O)N3CC=C(c4noc5cc(F)ccc45)CC3)[C@@H]3CCCNC3)c12 [Example 257, (R)-4-(6-fluorobenzo[d]isoxazol-3-yl)-N-(8-methylisoquinolin-1-yl)-N-(piperidin-3-yl)-3,6-dihydropyridine-1(2H)-carboxamide]",4170 nM
3,"Cc1cccc2ccnc(N(C(=O)c3cccc(Cn4nccn4)c3F)[C@@H]3CCCNC3)c12 [Example 282, (R)-3-((2H-1,2,3-triazol-2-yl)methyl)-2-fluoro-N-(8-methylisoquinolin-1-yl)-N-(piperidin-3-yl)benzamide]",4170 nM
4,"Cc1cccc2ccnc(N(C(=O)c3ccc(Nc4nnc(C(F)(F)F)s4)cc3F)[C@@H]3CCCNC3)c12 [Example 281, 2-fluoro-N-(8-methyl-1-isoquinolyl)-N-[(3R)-3-piperidyl]-4-[[5-(trifluoromethyl)-1,3,4-thiadiazol-2-yl]amino] benzamide]",2630 nM
5,"Cc1cccc2ccnc(N(C(=O)c3ccc(-n4nnc5ccc(-c6cc[nH]n6)nc54)cc3F)[C@@H]3CCCNC3)c12 [Example 138, (R)-4-(5-(1H-pyrazol-3-yl)-3H-[1,2,3]triazolo[4,5-b]pyridin-3-yl)-2-fluoro-N-(8-methylisoquinolin-1-yl)-N-(piperidin-3-yl)benzamide]",44.7 nM
6,"O=C(c1ccc(-n2nnc3cccnc32)cc1F)N(c1nccc2cccc(Cl)c12)[C@@H]1CCCNC1 [Example 246, (R)-4-(3H-[1,2,3]triazolo[4,5-b]pyridin-3-yl)-N-(8-chloroisoquinolin-1-yl)-2-fluoro-N-(piperidin-3-yl)benzamide]",33.1 nM
7,"Cc1cccc2ccnc(N(C(=O)c3ccc(Nc4nccc5cccnc45)cc3F)[C@@H]3CCCNC3)c12 [Example 276, (R)-4-((1,7-naphthyridin-8-yl)amino)-2-fluoro-N-(8-methylisoquinolin-1-yl)-N-(piperidin-3-yl)benzamide]",7080 nM
8,"Cc1cccc2ccnc(N(C(=O)c3ccc(Nc4ncns4)cc3F)[C@@H]3CCCNC3)c12 [Example 280, 2-fluoro-N-(8-methyl-1-isoquinolyl)-N-[(3R)-3-piperidyl]-4-(1,2,4-thiadiazol-5-ylamino)benzamide]",891 nM
9,"Cc1cccc2ccnc(N(C(=O)c3ccc(-n4nnc5cccnc54)cc3)[C@H]3CCCCNC3)c12 [Example 227, (S)-4-(3H-[1,2,3]triazolo[4,5-b]pyridin-3-yl)-N-(azepan-3-yl)-N-(8-methylisoquinolin-1-yl)benzamide]",> 20000 nM
10,"O=C(c1ccc(-n2nnc3cccnc32)cc1F)N(c1nccc2ccncc12)[C@@H]1CCCNC1 [Example 300, (R)-4-(3H-[1,2,3]triazolo[4,5-b]pyridin-3-yl)-2-fluoro-N-(2,7-naphthyridin-1-yl)-N-(piperidin-3-yl)benzamide]",> 20000 nM
11,"C=Cc1cccc2ccnc(N(C(=O)c3ccc(-n4nnc5cccnc54)cc3F)[C@@H]3CCCNC3)c12 [Example 102, (R)-4-(3H-[1,2,3]triazolo[4,5-b]pyridin-3-yl)-2-fluoro-N-(piperidin-3-yl)-N-(8-vinylisoquinolin-1-yl)benzamide]",46.8 nM
12,"O=C(c1ccc(-n2nnc3cccnc32)cc1F)N(c1nccc2ncccc12)[C@@H]1CCCNC1 [Example 249, (R)-4-(3H-[1,2,3]triazolo[4,5-b]pyridin-3-yl)-2-fluoro-N-(1,6-naphthyridin-5-yl)-N-(piperidin-3-yl)benzamide]",1410 nM
13,"Cc1cccc2ccnc(N(C(=O)c3ccc(N)cc3F)[C@@H]3CCCNC3)c12 [Example 124, (R)-4-amino-2-fluoro-N-(8-methylisoquinolin-1-yl)-N-(piperidin-3-yl) benzamide]",3890 nM
14,"Cc1cccc2ccnc(N(C(=O)c3ccc(-n4nnc5cccnc54)cc3)[C@H]3CNCC[C@@H]3C)c12 [Example 224, 4-(3H-[1,2,3]triazolo[4,5-b]pyridin-3-yl)-N-(8-methylisoquinolin-1-yl)-N-((3R,4S)-4-methylpiperidin-3-yl)benzamide]",> 20000 nM
15,"Cc1cccc2ccnc(N(C(=O)c3ccc(-n4nnc5cccnc54)cc3)[C@H]3CCNC3)c12 [Example 231, (S)-4-(3H-[1,2,3]triazolo[4,5-b]pyridin-3-yl)-N-(8-methylisoquinolin-1-yl)-N-(pyrrolidin-3-yl)benzamide]",> 20000 nM
16,"Cc1cccc2ccnc(N(C(=O)c3ccc(-c4cn(C)nn4)cc3F)[C@@H]3CCCNC3)c12 [Example 193, (R)-2-fluoro-4-(1-methyl-1H-1,2,3-triazol-4-yl)-N-(8-methylisoquinolin-1-yl)-N-(piperidin-3-yl)benzamide]",79.4 nM
17,"Cc1cccc2ccnc(N(C(=O)c3ncc(-n4nnc5cccnc54)cc3F)[C@@H]3CCCNC3)c12 [Example 201, (R)-5-(3H-[1,2,3]triazolo[4,5-b]pyridin-3-yl)-3-fluoro-N-(8-methylisoquinolin-1-yl)-N-(piperidin-3-yl)picolinamide]",148 nM
18,"Cc1cccc2ccnc(N(C(=O)c3ccc(Oc4ncccn4)cc3F)[C@@H]3CCCNC3)c12 [Example 133, 2-fluoro-N-(8-methyl-1-isoquinolyl)-N-(3-piperidyl)-4-pyrimidin-2-yloxy-benzamide]",269 nM
19,"COC(=O)c1cccnc1N(C(=O)c1ccc(-n2nnc3cccnc32)cc1F)[C@@H]1CCCNC1 [Example 167, methyl (R)-2-(4-(3H-[1,2,3]triazolo[4,5-b]pyridin-3-yl)-2-fluoro-N-(piperidin-3-yl)benzamido)nicotinate]",661 nM
20,"Cc1cccc2ccnc(N(C(=O)c3ccc(Nc4nccs4)cc3F)[C@@H]3CCCNC3)c12 [Example 275, (R)-2-fluoro-N-(8-methylisoquinolin-1-yl)-N-(piperidin-3-yl)-4-(thiazol-2-ylamino)benzamide]",3890 nM
21,"Cc1cccc2ccnc(N(C(=O)c3ccc(-n4nnc5ccc(C(=O)O)nc54)cc3F)[C@@H]3CCCNC3)c12 [Example 293, (R)-3-(3-fluoro-4-((8-methylisoquinolin-1-yl)(piperidin-3-yl)carbamoyl)phenyl)-3H-[1,2,3]triazolo[4,5-b]pyridine-5-carboxylic acid]",> 20000 nM
22,"O=C(O)c1ccc2c(N(C(=O)c3ccc(-n4nnc5cccnc54)cc3F)[C@@H]3CCCNC3)nccc2c1 [Example 118, (R)-1-(4-(3H-[1,2,3]triazolo[4,5-b]pyridin-3-yl)-2-fluoro-N-(piperidin-3-yl)benzamido)isoquinoline-6-carboxylic acid]",> 20000 nM
23,"Cc1cc(-c2ccc(C(=O)N(c3nccc4ccn(C)c34)[C@@H]3CCCNC3)c(F)c2)on1 [Example 212, (R)-2-fluoro-N-(1-methyl-1H-pyrrolo[2,3-c]pyridin-7-yl)-4-(3-methylisoxazol-5-yl)-N-(piperidin-3-yl)benzamide]",355 nM
24,"CCOC(=O)/C=C/c1cccc2ccnc(N(C(=O)c3ccc(-c4cn(C)nn4)cc3)[C@@H]3CCCNC3)c12 [Example 100, ethyl (R,E)-3-(1-(4-(1-methyl-1H-1,2,3-triazol-4-yl)-N-(piperidin-3-yl)benzamido)isoquinolin-8-yl)acrylate]",1170 nM
25,"Cc1cccc2ccnc(N(C(=O)N3CCN(c4nsc5ccccc45)CC3)[C@@H]3CCCNC3)c12 [Example 264, (R)-4-(benzo[d]isothiazol-3-yl)-N-(8-methylisoquinolin-1-yl)-N-(piperidin-3-yl)piperazine-1-carboxamide]",3980 nM
26,"Cc1cccc2ccnc(N(C(=O)c3ccc(-n4nnc5ccc(C#N)nc54)cc3F)[C@@H]3CCCNC3)c12 [Example 191, (R)-4-(5-cyano-3H-[1,2,3]triazolo[4,5-b]pyridin-3-yl)-2-fluoro-N-(8-methylisoquinolin-1-yl)-N-(piperidin-3-yl)benzamide]",10.7 nM
27,"O=C(c1ccc(-n2nnc3cccnc32)cc1F)N(c1nccc2ccc(C#CCO)cc12)[C@@H]1CCCNC1 [Example 103, (R)-4-(3H-[1,2,3]triazolo[4,5-b]pyridin-3-yl)-2-fluoro-N-(7-(3-hydroxyprop-1-yn-1-yl)isoquinolin-1-yl)-N-(piperidin-3-yl)benzamide]",776 nM
28,"Cc1cccc2ccnc(N(C(=O)N3CCC4(CC3)OCCc3ccsc34)[C@@H]3CCCNC3)c12 [Example 265, (R)—N-(8-methylisoquinolin-1-yl)-N-(piperidin-3-yl)-4′,5′-dihydrospiro[piperidine-4,7′-thieno[2,3-c]pyran]-1-carboxamide]",5750 nM
29,"Cc1cccc2ccnc(N(C(=O)c3ccc(-c4cnn(C)c4C(=O)O)cc3)[C@@H]3CCCNC3)c12 [Example 294, 2-methyl-4-[4-[(8-methyl-1-isoquinolyl)-[(3R)-3-piperidyl]carbamoyl]phenyl] pyrazole-3-carboxylic acid]",> 10000 nM
30,"COc1ccc2nnn(-c3ccc(C(=O)N(c4nccc5cccc(C)c45)[C@@H]4CCCNC4)c(F)c3)c2n1 [Example 187, (R)-2-fluoro-4-(5-methoxy-3H-[1,2,3]triazolo[4,5-b]pyridin-3-yl)-N-(8-methylisoquinolin-1-yl)-N-(piperidin-3-yl)benzamide]",50.1 nM
